Values joined by “and” are separate entries in the source; they are usually repeats but may differ in a detail not shown here. Identical values can stand only once.
Assays:
[1] = system: AML01-307 and AML18 patient-derived xenografts; test: Xenograft models of human AML (AML01-307, AML18): leukemic burden in blood, bone marrow, spleen; spleen weight; type: in vivo
Experimental: Patient-derived xenograft models were established as previously described[97],[98]. All experiments were pre-approved by the Human Research Ethics Committee of the University of New South Wales (UNSW), the UNSW Animal Care and Ethics Committee, the Alfred Health Human Ethics Committee and the AMREP Animal Ethics Committee. For transplantation assays, 10^6 splenocytes harvested from successfully engrafted primary human ETP-ALL or T-ALL xenografts were injected into nonobese diabetic/severe combined immunodeficient (NOD.Cg-Prkdc^scid, also termed NOD/SCID) or NOD/SCID/Il2rg^tm1wjl/SzJ (NSG) mice[99]. Moreover, 1.5 × 10^6 cells splenocytes harvested from successfully engrafted patient-derived AML xenografts were injected into nonobese diabetic/severe immunodeficient (NOD.Cg-Rag1^tm1MomIl2rg^tm1wjl/SzJ, also termed NRG) mice expressing human IL-3, human GM-CSF and human SCF from the SGM3 triple transgene (NRGS)[100]. Engraftment into recipients was monitored by FACS analysis of peripheral blood as previously described. […] Both males and females were used. […] Kaplan–Meier survival and statistical analyses were performed using GraphPad Prism. 6.0 software (GraphPad Software, Inc.).
Spleen and sternum from recipients were collected, incubated at least 24 h in 3.7% neutral buffered formalin (pH 7.4), embedded in paraffin and sectioned at 8 μm onto Superforst-Plus slides. Samples were incubated with an anti-human CD45 antibody (Dako, #M0701) in Dako Autostainer Plus solution, then incubated with a sheep anti-mouse IgG conjugated to HRP and processed as per standard protocols using 3,3’ Diaminobenzidine staining (#ab64238, Abcam) for all immunoblots, as previously described. Samples were imaged and annotated using an Aperio ScanScope and software system (Leica Biosystems). […]

[2] = Pharmacokinetic analysis of serum levels after a single intraperitoneal dose; type: in vivo; conditions: ip, mouse, single intraperitoneal dose 30 mg/Kg
Experimental: All experiments were pre-approved by the University of Melbourne Animal Ethics Committee (Ethics ID: 0911153.1). […] Five different time points were chosen to measure drug level: 15, 30, 60 120 and 240 min after intraperitoneal injection of the recipients. At each time points, treated mice were killed by lethal injection of 0.01 mL/g of Lethobarb® (325 mg pentobarbitone sodium/mL). Following this, blood was collected via intra-cardiac puncture, blood was then allowed to clot at room temperature for 15 min, then centrifuged at 1500 × g for 6 min to separate out the cells and serum. The serum was collected, weighed, snap frozen in dry ice and stored at −80 °C.
Drug-free mouse serum was used as negative controls. Serum blanks, including calibration standard and quality control samples, were prepared by protein precipitation. Selectivity was evaluated by comparing chromatograms of six blank blood samples from six different sources to make sure there were no significant interfering peaks at retention time of analysis. The maximum serum concentration (Cmax) and the time to reach Cmax (Tmax) were directly obtained from the experimental data. The time needed for 50% reduction in the serum concentration (terminal half-life; T1/2) was calculated from the mean values (n = 5) using GraphPad Prism 8.

Lmo2^Tg primary T-ALL = test: Survival (Kaplan-Meier) and leukemia growth delay in recipients of Lmo2^Tg primary T-ALL; type: in vivo, mouse; conditions: * = non-leukemic at endpoint
Experimental: Single-cell suspension of murine thymus cells were intravenously injected into sublethally irradiated (650 Rads) isogenic Ly5.1 (Cd45.1) mice. Fold expansion was calculated by dividing the absolute output number of donor-derived DN3a cells harvested at the experimental endpoint by the respective number of DN3a thymocytes injected in each recipient. Limiting dilution transplantations were performed as described, by injecting various doses (10^1 to 10^6) of thymocytes per recipient, and mice were scored positive when T-cell lineage reconstitution assessed 6 weeks after transplantation was >1%. Leukemia-propagating cell frequency was calculated by applying Poisson statistics using the ELDA: Extreme Limiting Dilution Analysis software (Walter and Eliza Hall Institute Bioinformatics, Parkville VIC, Australia)[96]. Limiting dilution transplantations were performed independently from any other transplantation assays, using thymocytes from three different Lmo2^Tg mice for each cohort. Kaplan–Meier survival and statistical analysis were performed using GraphPad Prism. 6.0 software (GraphPad Software Inc, San Diego CA, USA). […]
derived leukemic cells (%Cd45.2+) in the peripheral blood (PB) of recipients injected with Lmo2 Tg primary leukemias (T-ALL 582, n=5/cohort; T-ALL 273, n=7/cohort; T-ALL 249, n=5/cohort) treated with Dynole 34-2, VXL or combination therapy. […]

CCCCCCCCNC(=O)C(C#N)=Cc1cn(CCCN(C)C)c2ccccc12 [Dynole 34-2, 2-Cyano-N-octyl-3-(1-(3-dimethylaminopropyl)-1H-indol-3-yl)-acrylamide]
Absolute numbers human CD45+ cells ([1]; AML01-307, BM): 749000 and 744000 and 1060000 | Absolute numbers human CD45+ cells ([1]; AML01-307, Spleen): 5750000 and 6290000 and 9130000 | Proportion of hCD45+ (%) in peripheral blood ([1]; AML01-307, time 1 weeks): 0.7% and 0.2% and 0.4% and 0.1% | Proportion of hCD45+ (%) in peripheral blood ([1]; AML01-307, time 2 weeks): 0.7% and 1.2% and 3.7% and 1% and 1.9% and 0.8% | Proportion of hCD45+ (%) in peripheral blood ([1]; AML01-307, time 3 weeks): 2.8% and 3.7% and 3.9% and 4.4% and 5.1% and 2% and 1.3% | Proportion of hCD45+ (%) in peripheral blood ([1]; AML01-307, time 4 weeks): 5.1% and 5.66% and 9.2% and 9% and 8.38% and 2.7% and 2.566% and 4.8% | Proportion of hCD45+ (%) in peripheral blood ([1]; AML01-307, time 5 weeks): 5.6% and 7.7% and 4.3% and 6.7% and 5.2% and 3.11% and 3.44% and 4.93% | Proportion of hCD45+ (%) in peripheral blood ([1]; AML01-307, time 6 weeks): 17.22% | Proportion of hCD45+ (%) in peripheral blood ([1]; AML01-307, time 8 weeks): 18.86% and 22% and 33.26% and 20.57% and 30.66% and 22.85% | Proportion of hCD45+ (%) in peripheral blood ([1]; AML01-307, time 9 weeks): 36.6% and 52.3% and 29.5% and 40.0% | Absolute numbers human CD45+ cells ([1]; AML18, BM): 436000 and 427000 and 629000 and 665000 | Proportion of hCD45+ (%) in peripheral blood ([1]; AML18, time 1 weeks): 0.1% and 0.2% and 0.6% and 0.5% and 0.0% and 0.4% | Proportion of hCD45+ (%) in peripheral blood ([1]; AML18, time 4 weeks): 31.4% | Proportion of hCD45+ (%) in peripheral blood ([1]; AML18, time 7 weeks): 30.6% and 36.7% | Proportion of human CD45 (%) in peripheral blood ([1]; AML18 xenograft recipients): 2% and 5.6% and 2.4% and 1.6% and 4.8% and 5% and 2.26% and 2.3% | Spleen weight ([1]; PDX AML01-307): 0.115 g and 0.137 g and 0.108 g | Spleen weight ([1]; PDX AML18): 0.297 g and 0.287 g and 0.182 g and 0.316 g | Cmax ([2]; read-out: average maximum concentration (Cmax) in serum): > 4 µM | half-life ([2]; read-out: estimated half-life in serum): 30 min | Time to leukemia (Lmo2^Tg primary T-ALL; recipients of primary T-ALL 249): 3.7 weeks and 3 weeks and 3.4 weeks | Time to leukemia (Lmo2^Tg primary T-ALL; recipients of primary T-ALL 582): 4.1 weeks and 5.6 weeks and 5.7 weeks and 6 weeks and 6.3 weeks
